Source: patent US8642630B2, “Endogeneous repair factor production accelerators” (Ono Pharmaceutical Co., Ltd., priority 2002, dated 2014)

Columns and labels:
HGF = test: Endogenous repair factor releasing action (in vitro), HGF by ELISA, Example 10; format: cell-based, human; settings: 100 nmol/l; for HGF concentration in culture supernatant: after 72 hours of culturing, average of 3 wells ± SD; for HGF concentration in supernatants, in words: vs untreated, Dunnett's test
Method: (§1) An angiogenesis kit (manufactured by Kurabo; constituted from normal human umbilical cord vein vascular endothelial cells and normal human skin fibroblasts) was cultured for 3 hours, and then the culture medium (the medium for angiogenesis use attached to the angiogenesis kit was used as the culture medium and cultured at 37° C. under a moist environment of 5% carbon dioxide-95% air, and a carbon dioxide incubator BNA-121D was used as the incubator) was changed and an agent to be tested was added to each well (0.5 ml/well). HGF and VEGF concentrations in the culture supernatants were measured 3 days after the commencement of the culturing. Kinds and concentrations of the agent to be tested were untreated; DMSO: 0.1%; PGE1-αCD: 100 nmol/l; PGE2-αCD: 100 nmol/l; and Compound 3 (EP2 agonist) and Compound 4 (EP4 agonist): 100 nmol/l, and the culturing was carried out by using 3 wells for each concentration. The HGF and VEGF concentrations were measured by using an ELISA kit (R % D system-Funakoshi).
(§2) In this connection, Compound 3 as an EP2 agonist ((5Z,9β,11α,13E)-17,17-propano-11,16-dihydroxy-9-chloro-20-norprost-5,13-dienoic acid) was dissolved in dimethyl sulfoxide (DMSO) to prepare a 10^−4 mol/l solution which was then used by diluting 1/1000 time with the culture medium.
(§3) Compound 4 as an EP4 agonist ((11α,13E,15α)-9-oxo-11,15-dihydroxy-16-(3-methoxymethylphenyl)-17,18,19,20-tetranor-5-thiaprost-13-enoic acid) was dissolved in dimethyl sulfoxide (DMSO) to prepare a […] solution which was then used by diluting 1/1000 time with the culture medium.
(§4) The PGE1-αCD and PGE2-αCD were dissolved in distilled water for injection to prepare 10^−4 mol/l solutions which were then used by diluting 1/1000 time with the culture medium.
(§5) HGF and VEGF concentrations in the supernatants of the solvent control group were compared with those of the agent-treated groups by Dunnett's test (two-sided test). The significance level was set to 5%.
(§6) In this connection, the data were shown by average value of 3 wells and standard deviation.

[1] = system: mouse sponge transplantation model; test: Angiogenesis test using mouse sponge transplantation model, Example 8; format: in vivo; settings: 14 days of repeated administration
Method: Under anesthesia, dorsal part of a mouse was incised and a discus urethane sponge (about 5 mm in thickness and 13 mm in diameter) was embedded therein. Administration of the agent was carried out by topically administering it directly into the sponge once a day for a total of 14 times starting on the day of the sponge transplantation model preparation, or on the operation-completed day and 7th day thereafter. On the 15th day after the sponge transplantation, the sponge containing granulation tissue was extracted and observed with the naked eye, and then its wet mass was measured. In addition, this was mixed with distilled water of 4 times larger amount than the wet mass, homogenized and centrifuged, and then the supernatant was subjected to the measurement of the hemoglobin content using Hemoglobin 13-Test Wako (manufactured by Wako Pure Chemical Industries).
• The polylactic acid-glycolic acid copolymer used in Preparation Example 2 was suspended in 0.2 w/v % Tween 80 solution (0.05 ml). In this connection, amount of the polylactic acid-glycolic acid copolymer is identical to the amount contained in Compound 1 MS (200 μg). Compound 1 (20 μg) Group: • Compound 1 (20 μg) was suspended in 0.2 w/v % Tween 80 solution (0.05 ml). Compound 1 (40 μg) Group:
Compound 1 (40 μg) was suspended in 0.2 w/v % Tween 80 solution (0.05 ml).
• Compound 1 (200 μg) was suspended in 0.2 w/v % Tween 80 solution (0.05 ml). Compound 1 MS (200 μg) group: • The microsphere preparation produced in Preparation Example 2 containing […] of Compound 1 was suspended in 0.2 w/v % Tween 80 solution (0.05 ml). Compound 1 MS (400 μg) Group: • The microsphere preparation produced in Preparation Example 2 containing 400 μg of Compound 1 was suspended in 0.2 w/v % Tween 80 solution (0.05 ml). Compound 3 (20 μg) Group: • Compound 3 (20 μg) was suspended in 0.2 w/v % Tween 80 solution (0.05 ml).

[2] = system: normal human umbilical cord vein vascular endothelial cells and normal human skin fibroblasts; test: Measurement of angiogenesis acceleration action (in vitro), hollow organ formation, Example 9; format: cell-based; settings: 10 days of culturing, FIG. 5
Method: An angiogenesis kit (manufactured by Kurabo; constituted from normal human umbilical cord vein vascular endothelial cells and normal human skin fibroblasts) was cultured for 3 hours, and then the culture medium (the medium for angiogenesis use attached to the angiogenesis kit was used as the culture medium and cultured at 37° C. under a moist environment of 5% carbon dioxide-95% air, and a carbon dioxide incubator BNA-121D was used as the incubator) was changed and an agent to be tested was added to each well (0.5 ml/well). The medium exchange was carried out also on the 3rd, 6th and 8th days after commencement of the culturing and the fresh agent to be tested was added. The kind and concentration of the agent to be tested were untreated; DMSO: 0.1%; α-CD: 0.0118, 0.118 and 1.18 mg/ml; PGE2-αCD: 1, 10 and 100 nmol/l; Compound 3 (EP2 agonist), Compound 4 (EP4 agonist), EP1 agonist and EP3 agonist: 1, 10 and 100 nmol/l, VEGF: 0.1, 1 and 10 ng/ml; and HGF: 0.1, 1 and 10 ng/ml, and culturing was carried out by using 3 wells for each concentration. Fixation was carried out 10 days after the commencement of culturing, and staining of hollow organ with anti-CD31 antibody was carried out by using a hollow organ staining kit (manufactured by Kurabo). As the evaluation, Chalkley Grid (a grid lens, Kurabo) was mounted on the eyepiece of a microscope, and the hollow organ formation was evaluated by counting intersections of the randomly arrange points of Chalkley Grid with the formed hollow organ (by referring to the evaluation method of J. Pathol., 177, 275-283 (1995)). The counting was carried out at 12 positions per well, and the total was calculated.
In this connection, Compound 3 as an EP2 agonist ((5Z,9β,11α,13E)-17,17-propano-11,16-dihydroxy-9-chloro-20-norprost-5,13-dienoic acid) was dissolved in dimethyl sulfoxide (DMSO) to prepare 10^−4, 10^−5 and 10^−6 mol/l solutions which were then used by diluting 1/1000 time with the culture medium.
Compound 4 as an EP4 agonist ((11α,13E,15α)-9-oxo-11,15-dihydroxy-16-(3-methoxymethylphenyl)-17,18,19,20-tetranor-5-thiaprost-13-enoic acid) was dissolved in dimethyl sulfoxide (DMSO) to prepare 10^−4, 10^−5 and 10^−6 mol/l solutions which were then used by diluting 1/1000 time with the culture medium.
The EP1 agonist ((13E)-(11α,15S,17S)-2,5-ethano-6,9-dioxo-11,15-dihydroxy-17,20-dimethylprost-13-enoic acid; the compound described in Example 1 in the specification of JP-A-11-322709) was dissolved in dimethyl sulfoxide (DMSO) to prepare 10^−4, 10^−5 and 10^−6 mol/l solutions which were then used by diluting 1/1000 time with the culture medium.
The EP3 agonist (11α,15α-dimethoxy-9-oxoprost-5Z,13E-dienoic acid; the compound described in Example 1 in the specification of WO98/34916) was dissolved in dimethyl sulfoxide (DMSO) to prepare 10^−4, 10^−5 and 10^−6 mol/l solutions which were then used by diluting 1/1000 time with the culture medium.
The PGE2-αCD was dissolved in distilled water for injection to prepare 10^−4, 10^−5 and 10^−6 mol/l solutions which were then used by diluting 1/1000 time with the culture medium.
As the VEGF (vascular endothelial growth factor), the 2 μg/ml solution of VEGF contained in the angiogenesis control reagent kit of Kurabo was diluted with the culture medium and used.
As the HGF (human hepatocyte growth factor), the 5 μg/ml solution of HGF purchased from R & D System-Funakoshi was diluted with the culture medium and used.
The counts of hollow organ formation in the untreated wells were compared with those of the wells treated with respective concentrations of test samples by Dunnett's test (two-sided test). The significance level was set to 5%.
as §6

VEGF = test: Endogenous repair factor releasing action (in vitro), VEGF by ELISA, Example 10; format: cell-based, human; settings: 100 nmol/l; for VEGF concentration in culture supernatant: after 72 hours of culturing, average of 3 wells ± SD; for VEGF concentration in supernatants, in words: vs untreated, Dunnett's test
Method: as §1, §2, §3, §4, §5, §6

[3] = system: normal human umbilical cord vein vascular endothelial cells and normal human skin fibroblasts; test: Measurement of angiogenesis acceleration action (in vitro), hollow organ formation, Example 1; format: cell-based; settings: 10 ng/ml; 10 days of culturing; FIG. 1
Method: An angiogenesis kit (manufactured by Kurabo; constituted from normal human umbilical cord vein vascular endothelial cells and normal human skin fibroblasts) was cultured for 3 hours, and then the culture medium (the medium for angiogenesis use attached to the angiogenesis kit was used as the culture medium and cultured at 37° C. under a moist environment of 5% carbon dioxide-95% air, and a carbon dioxide incubator BNA-121D was used as the incubator) was changed and an agent to be tested was added to each well (0.5 ml/well). The medium exchange was carried out also on the 3rd, 6th and 8th days after commencement of the culturing and the fresh agent to be tested was added. The kind and concentration of the agent to be tested were untreated, solvent (DMSO) 0.1%, Compound 1 10^−9, 10^−8 and 10^−7 mol/l, VEGF-A 0.1, 1 and 10 ng/ml and HGF 0.1, 1 and 10 ng/ml, and the culturing was carried out by using 3 wells for each concentration. Fixation was carried out 10 days after the commencement of culturing, and staining of hollow organ with anti-CD31 antibody was carried out by using a hollow organ staining kit (manufactured by Kurabo). As the evaluation, Chalkley Grid (a grid lens, manufactured by Kurabo) was mounted on the eyepiece of a microscope, and the hollow organ formation was evaluated by counting intersections of the randomly arrange points of Chalkley Grid with the formed hollow organ (by referring to the evaluation method of J. Pathol., 177, 275-283 (1995)). The counting was carried out at 12 positions per well, and the total was calculated.
As the agent to be tested, Compound 1 ((E)-[5-[2-[1-phenyl-1-(3-pyridyl)methylideneaminoxy]ethyl]-7,8-dihydronaphthalen-1-yloxy]acetic acid) was dissolved in dimethyl sulfoxide (DMSO) to prepare 10^−4, 10^−5 and 10^−6 mol/l solutions which were then used by diluting 1/1000 time with the culture medium.
As the VEGF-A (vascular endothelial growth factor-A), the 2 μg/ml solution of VEGF contained in the angiogenesis control reagent kit of Kurabo was diluted with the culture medium and used. […]

[4] = 20 μg into the sponge once a day, 15th day
[5] = 10 nmol/l and 100 nmol/l, vs untreated wells, Dunnett's test

Compound	HGF concentration in culture supernatant (HGF) [pg/mL]	HGF concentration in supernatants, in words (HGF)	hollow organ formation (Chalkley Grid count), in words [2, 5]	VEGF concentration in culture supernatant (VEGF) [pg/mL]	VEGF concentration in supernatants, in words (VEGF)	hollow organ formation (Chalkley Grid count), in words ([2]; 1, 10 and 100 nmol/l)	other results
CCC1(C(O)C/C=C/[C@@H]2[C@@H](C/C=C\CCCC(=O)O)[C@H](Cl)C[C@H]2O)CCC1 (stereo partly drawn) [Compound 3, (5Z,9β,11α,13E)-17,17-propano-11,16-dihydroxy-9-chloro-20-norprost-5,13-dienoic acid]	1865 ± 48	significantly increased HGF and VEGF concentrations	significantly accelerated hollow organ formation	2762 ± 51	significantly increased HGF and VEGF concentrations	–	Hemoglobin content [1, 4]: 4.588 ± 0.488 mg/g wet tissue; Sponge wet weight [1, 4]: 0.5193 ± 0.0792 g; formation of granulation in the sponge, in words ([1]; 20 μg): formation of granulation was found; hemoglobin concentration in the granulation tissue, in words ([1]; 20 μg, vs polymer group): significant increase in the concentration of hemoglobin
COCc1cccc(C[C@H](O)/C=C/[C@H]2[C@H](O)CC(=O)[C@@H]2CCSCCCC(=O)O)c1 [Compound 4, (11α,13E,15α)-9-oxo-11,15-dihydroxy-16-(3-methoxymethylphenyl)-17,18,19,20-tetranor-5-thiaprost-13-enoic acid]	379 ± 12	significantly increased HGF and VEGF concentrations	significantly accelerated hollow organ formation	2936 ± 69	significantly increased HGF and VEGF concentrations	–	–
CCCC[C@H](C)C[C@H](O)/C=C/[C@H]1[C@H](O)CC(=O)[C@@H]1CC(=O)C1CCC(C(=O)O)CC1 (stereo partly drawn) [EP1 agonist, (13E)-(11α,15S,17S)-2,5-ethano-6,9-dioxo-11,15-dihydroxy-17,20-dimethylprost-13-enoic acid, reference compound]	–	–	–	–	–	did not exert influence upon hollow organ formation	–
CCCCC[C@@H](/C=C/[C@H]1[C@H](OC)CC(=O)[C@@H]1C/C=C\CCCC(=O)O)OC [EP3 agonist, 11α,15α-dimethoxy-9-oxoprost-5Z,13E-dienoic acid, reference compound]	–	–	–	–	–	did not exert influence upon hollow organ formation	–
OC[C@H]1O[C@@H]2O[C@H]3[C@H](O)[C@@H](O)[C@@H](O[C@H]4[C@H](O)[C@@H](O)[C@@H](O[C@H]5[C@H](O)[C@@H](O)[C@@H](O[C@H]6[C@H](O)[C@@H](O)[C@@H](O[C@H]7[C@H](O)[C@@H](O)[C@@H](O[C@H]1[C@H](O)[C@H]2O)O[C@@H]7CO)O[C@@H]6CO)O[C@@H]5CO)O[C@@H]4CO)O[C@@H]3CO [α-CD]	–	–	–	–	–	–	hollow organ formation (Chalkley Grid count), in words ([2]; 0.0118, 0.118 and 1.18 mg/ml): did not exert influence upon hollow organ formation
HGF: human hepatocyte growth factor purchased from R & D System-Funakoshi; positive control agent	–	–	–	–	–	–	hollow organ formation (Chalkley Grid count), in words [3]: accelerated hollow organ formation; hollow organ formation (Chalkley Grid count), in words ([2]; 10 ng/ml): accelerated hollow organ formation
